{"source": "patent US20120135917A1", "about": "“Anti-Gram Negative Bacteria Agent” (priority 2009, published 2012)", "key": {"Escherichia coli": {"system": "Escherichia coli", "assay": "Viable cell count of Escherichia coli with peptide and polymyxin B", "assay_type": "cell-based", "conditions": "ATCC25922; 3 mM LTLR; polymyxin B 0.2 μg/mL", "procedure": "Escherichia coli (ATCC25922) was used in place of Pseudomonas aeruginosa for the same measurement as in Example 2.\nLTLR whose carboxy terminal was amidated was synthesized to examine the action thereof. Under the same conditions as those in Example 1, various concentrations of the amidated LTLR were added to examine changes in the survival rate of Pseudomonas aeruginosa."}, "[1]": {"system": "Clinical isolates (strains 24, 42, 83, 88 and 92 of P. aeruginosa), strain nalB, strain nfxC", "conditions": "3 mM LTLR, polymyxin B 0.2 μg/mL", "procedure": "In Examples and the like described below, the number of viable cells of Gram-negative bacteria (Pseudomonas aeruginosa or Escherichia coli) is measured as follows. A portion of bacteria cultured at 37° C. overnight is added to a fresh MH medium and continues to be cultured at the same temperature. When the turbidity (absorbance at 600 nm) of the bacteria reaches 0.7-0.8, the bacterial solution is added an MH medium to prepare a bacterial solution diluted 1:100-200, which is used for experimental purposes. A solution in which 60-80 μL of the bacterial solution was added to a solution of a peptide and the like to a final amount of 100 μL is cultured for a certain time (3 hours) while stirring at 37° C. After culture, the bacterial solution was diluted with a PBS solution, and the diluted solution is seeded on an MH agar plate and cultured at 37° C. overnight. The following day, the number of colonies grown on the plate is counted to determine the number of viable bacterial cells.\nClinical isolates (strains 24, 42, 83, 88 and 92 of P. aeruginosa), strain nalB (a strain having acquired high multidrug resistance by highly expressing MexAB-OprM as a drug efflux pump), and strain nfxC (a strain having acquired high multidrug resistance by highly expressing MexEF-OprN as a drug efflux pump) were used in place of the strain PA01 (standard strain) of Pseudomonas aeruginosa used in Example 1 to measure the action of LTLR thereon. In this experiment, the final concentration of polymyxin B was set at 0.2 μg/mL with 3 mM LTLR added to examine changes in the survival rate thereof."}, "[2]": {"system": "Pseudomonas aeruginosa (strain PAO1)", "assay": "Viable cell count of Pseudomonas aeruginosa strain PAO1 cultured with peptide and polymyxin B", "assay_type": "cell-based", "conditions": "0.4 μg/mL polymyxin B", "procedure": "At this time, the culture was performed under conditions in which various concentrations of a peptide, LTLR (a peptide consisting of 4 amino acid residues, having the sequence leucine-threonine-leucine-arginine) were added. Under each condition, the number of viable cells of Pseudomonas aeruginosa was measured, and it was measured how the addition of the peptide changes the number of the viable cells compared to the number of the viable cells for no addition of the peptide. The results are shown in the graph of FIG. 4(A)."}}, "note": "Like-named read-outs stand apart in the source and are kept apart here."}
{"substance": "leucine-threonine-leucine-arginine [LTLR]", "values": [{"measurement": "survival rate of Escherichia coli", "setting": "Escherichia coli", "result": "about 1%"}, {"measurement": "Survival Rate (%)", "setting": "[1]; P. aeruginosa 24", "result": 0, "unit": "%"}, {"measurement": "Survival Rate (%)", "setting": "[1]; P. aeruginosa 42", "result": 43, "unit": "%"}, {"measurement": "Survival Rate (%)", "setting": "[1]; P. aeruginosa 83", "result": 0, "unit": "%"}, {"measurement": "Survival Rate (%)", "setting": "[1]; P. aeruginosa 88", "result": 25, "unit": "%"}, {"measurement": "Survival Rate (%)", "setting": "[1]; P. aeruginosa 92", "result": 9, "unit": "%"}, {"measurement": "Survival Rate (%)", "setting": "[1]; strain nalB (highly expressing MexAB-OprM)", "result": 0, "unit": "%"}, {"measurement": "Survival Rate (%)", "setting": "[1]; strain nfxC (highly expressing MexEF-OprN)", "result": 1, "unit": "%"}, {"measurement": "survival rate of Pseudomonas aeruginosa", "setting": "[2]; 2.5 mM peptide, 3 hours culture, vs no addition of peptide", "result": "~0", "unit": "%"}, {"measurement": "change in survival rate of Pseudomonas aeruginosa", "setting": "[2]; various concentrations of peptide", "result": "decreased in a manner dependent on the concentration"}]}
